According to patent publication US20040043417A1, “Generation and screening of a dynamic combinatorial library” (priority 2000, published 2004):

Molecular target: Concanavalin A (Canavalia ensiformis, UniProt P02866)
Assay: Screening of acyl hydrazone libraries against Concanavalin A, competitive binding assay
Description: The library was then made up of one part (40 μL) of each of these solutions, buffered with sodium acetate buffer (50 μL, 1 M, pH 4.0), and diluted with water (510 μL) to a final concentration of 1 mM of each building block, and 50 mM buffer. The resulting libraries were allowed to equilibrate for one week at room temperature to assure complete reaction, and used directly, or following concentration/dilution, in the subsequent screening tests.

For `NNC(=O)CCCCCCCCC(=O)NN` [SED, sebacoyldihydrazide], the “contribution of building block to the binding to Concanavalin A” value was “important contributions to the binding”.
